The source of these data is patent US20240279215A1 (Cytokinetics, Incorporated, priority 2022, published 2024).

The assay deals with human NAMPT (Homo sapiens (Human), UniProt P43490). The assay can be described thus: NMN fluorescence biochemical assay (human recombinant NAMPT enzyme assay). How it is done: Compounds described herein were assayed for their ability to stimulate the synthesis of nicotinamide mononucleotide (NMN) by the enzyme NAMPT. The human recombinant enzyme assay measures the activation of the enzyme activity by compounds using recombinant enzyme and substrates in a buffered cell-free system. The assay conditions closely mimic cellular environments. Dose responses were measured using an assay to detect the formation of nicotinamide mono-nucleotide. All experiments were performed in the 384-well format. Generally, 0.5 μL of DMSO containing varying concentrations of the test compound was mixed with 10 μL of the enzyme reagent solution. Enzyme reactions were initiated with the addition of […] containing the substrates. The final assay conditions were as follows: 6 nM human NAMPT, 2.5 mM ATP, 20 μM PRPP and 150 μM nicotinamide in 50 mM HEPES, pH 7.2, 1 mM DTT, 1 mM CHAPS 50 mM NaCl, 100 mM MgCl2. Following an incubation of 60 min at ambient temperature, 10 μL of 20% acetophenone in DMSO was added, followed by 10 μL of 2 M KOH and 40 μL of formic acid. The plates were read for fluorescence (Excitation/Emission=355 nm/460 nm) using an EnVision plate reader after 40 mins of incubation at ambient temperature.
human NAMPT, sequence (P43490 whole entry): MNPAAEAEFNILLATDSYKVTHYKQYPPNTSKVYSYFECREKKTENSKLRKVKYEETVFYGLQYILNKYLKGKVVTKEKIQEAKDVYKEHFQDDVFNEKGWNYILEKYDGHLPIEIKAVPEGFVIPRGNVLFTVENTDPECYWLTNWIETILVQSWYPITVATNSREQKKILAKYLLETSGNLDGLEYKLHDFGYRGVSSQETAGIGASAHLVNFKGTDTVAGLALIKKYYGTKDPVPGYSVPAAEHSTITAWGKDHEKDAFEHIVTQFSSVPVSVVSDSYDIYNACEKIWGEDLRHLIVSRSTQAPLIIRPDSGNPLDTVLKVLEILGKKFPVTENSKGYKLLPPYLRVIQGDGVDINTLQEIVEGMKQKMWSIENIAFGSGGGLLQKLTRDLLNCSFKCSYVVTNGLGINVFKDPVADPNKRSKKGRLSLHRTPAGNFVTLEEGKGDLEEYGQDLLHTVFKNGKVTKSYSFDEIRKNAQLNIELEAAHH
On to `CC(=O)N1CCC(Cc2ccc(NC(=O)OCc3cnco3)cc2)CC1` [Compound 31, oxazol-5-ylmethyl (4-((1-acetylpiperidin-4-yl)methyl)phenyl)carbamate], for which the “AC1.4 Human” value is 0.37 µM and the concentration for a half-maximal effect (EC50) (in general, the concentration needed to bring the measured effect to its halfway point) turned out to be 21.7 µM.

In the case of `O=C(Nc1ccc(NS(=O)(=O)Cc2ccccc2)cc1)OCc1ccc(Cl)cc1` [Compound 33, 4-chlorobenzyl (4-((phenylmethyl)sulfonamido)phenyl)carbamate], the “AC1.4 Human” value stood at 0.38 µM and the EC50 was 1.01 µM.

As to `CN(C)S(=O)(=O)N1CCC(Cc2ccc(NC(=O)OCc3ccc(Cl)cc3)cc2)CC1` [Compound 34, 4-chlorobenzyl (4-((1-(N,N-dimethylsulfamoyl)piperidin-4-yl)methyl)phenyl)carbamate], the “AC1.4 Human” value turned out to be 0.38 µM and the EC50 is 0.82 µM.

In the case of `CC(C)C(=O)N1CCC(Cc2ccc(NC(=O)OCc3cnco3)cc2)CC1` [Compound 35, oxazol-5-ylmethyl (4-((1-isobutyrylpiperidin-4-yl)methyl)phenyl)carbamate], the “AC1.4 Human” value came out at 0.39 µM and the EC50 was 37.9 µM.

Turning to `CN(Cc1ccc(NC(=O)OCc2ccc(Cl)cc2)cc1)C(=O)c1ccncc1F` [Compound 36, (4-chlorophenyl)methyl N-(4-{[1-(3-fluoropyridin-4-yl)-N-methylformamido]methyl}phenyl)carbamate], the “AC1.4 Human” value stood at 0.40 µM and the EC50 came to 1 µM.

For the molecule `Cc1ccc(C(=O)NCc2ccc(NC(=O)OCc3ccncc3)cc2)cn1` [Compound 37, pyridin-4-ylmethyl (4-((6-methylnicotinamido)methyl)phenyl)carbamate], the “AC1.4 Human” value came to 0.41 µM and the EC50 was found to be 3.67 µM.

Take `CS(=O)(=O)N1CCC(Cc2ccc(NC(=O)OCc3ccc(Cl)cc3)cc2)CC1` [Compound 38, 4-chlorobenzyl (4-((1-(methylsulfonyl)piperidin-4-yl)methyl)phenyl)carbamate]: the “AC1.4 Human” value is 0.42 µM and the EC50 turned out to be 1.22 µM.

In the case of `C[C@H](NC(=O)c1ccc(F)cc1)c1ccc(NC(=O)OCc2cnco2)cc1` [Compound 39, 1,3-oxazol-5-ylmethyl N-{4-[(1S)-1-[(4-fluorophenyl)formamido]ethyl]phenyl}carbamate], the “AC1.4 Human” value is 0.43 µM and the EC50 stood at 19.2 µM.

Turning to `CN(Cc1ccc(NC(=O)OCc2ccc(Cl)cc2)cc1)C(=O)c1cn[nH]c1` [Compound 41, (4-chlorophenyl)methyl N-{4-[(N-methyl-1-1H-pyrazol-4-ylformamido)methyl]phenyl}carbamate], the “AC1.4 Human” value turned out to be 0.44 µM and the 50% effective concentration (EC50) came to 3.48 µM.

In the case of `COC1CCN(C(=O)N(C)Cc2ccc(NC(=O)OCc3ccc(Cl)cc3)cc2)CC1` [Compound 42, 4-chlorobenzyl (4-((4-methoxy-N-methylpiperidine-1-carboxamido)methyl)phenyl)carbamate], the “AC1.4 Human” value was 0.44 µM and the EC50 was found to be 5.66 µM.

Take `C[C@H](NC(=O)c1ccncc1F)c1ccc(NC(=O)OCc2ccc(Cl)cc2)cc1` [Compound 44, (4-chlorophenyl)methyl N-{4-[(1S)-1-[(3-fluoropyridin-4-yl)formamido]ethyl]phenyl}carbamate]: the “AC1.4 Human” value is 0.45 µM and the 50% effective concentration (EC50) was determined as 4.19 µM.

With `Cc1cnn(C)c1C(=O)NCc1ccc(NC(=O)OCc2ccc(Cl)cc2)cc1` [Compound 45, (4-chlorophenyl)methyl N-(4-{[(2,4-dimethylpyrazol-3-yl)formamido]methyl}phenyl)carbamate], the “AC1.4 Human” value stood at 0.46 µM and the EC50 was 1.88 µM.

For `Cc1noc(C(=O)N[C@@H](C)c2ccc(NC(=O)OCc3ccc(Cl)cc3)cc2)c1C` [Compound 46, 4-chlorobenzyl (S)-(4-(1-(3,4-dimethylisoxazole-5-carboxamido)ethyl)phenyl)carbamate], the “AC1.4 Human” value came to 0.48 µM and the EC50 came out at 2.58 µM.

For the molecule `COc1ccc(COC(=O)Nc2ccc([C@@H](C)C(=O)N3CCC[C@H]3CO)cc2)cc1` [Compound 47], the “AC1.4 Human” value turned out to be 0.49 µM and the EC50 came out at 9.61 µM.

For the molecule `O=C(Nc1ccc(CC2CCN(C(=O)C3COC3)CC2)cc1)OCc1cnco1` [Compound 48, oxazol-5-ylmethyl (4-((1-(oxetane-3-carbonyl)piperidin-4-yl)methyl)phenyl)carbamate], the “AC1.4 Human” value came out at 0.49 µM and the EC50 was 31 µM.

Regarding `CN(Cc1ccc(NC(=O)OCc2ccc(Cl)cc2)cc1)C(=O)c1cc[nH]n1` [Compound 49, (4-chlorophenyl)methyl N-{4-[(N-methyl-1-1H-pyrazol-3-ylformamido)methyl]phenyl}carbamate], the “AC1.4 Human” value amounted to 0.50 µM and the EC50 was 2.02 µM.

Regarding `CN(Cc1ccc(NC(=O)OCc2ccc(Cl)cc2)cc1)C(=O)c1ccnn1C` [Compound 50, (4-chlorophenyl)methyl N-(4-{[N-methyl-1-(2-methylpyrazol-3-yl)formamido]methyl}phenyl)carbamate], the “AC1.4 Human” value came to 0.50 µM and the EC50 was found to be 0.89 µM.

Turning to `Cc1ccc(Cc2ccc(NC(=O)OCc3cnco3)cc2)cn1` [Compound 51, oxazol-5-ylmethyl (4-((6-methylpyridin-3-yl)methyl)phenyl)carbamate], the “AC1.4 Human” value came to 0.50 µM and the EC50 is 40.3 µM.

As for `COc1ccc(COC(=O)Nc2ccc(CNC(=O)c3ccc(C)nc3)cc2)cc1` [Compound 53, (4-methoxyphenyl)methyl N-(4-{[(6-methylpyridin-3-yl)formamido]methyl}phenyl)carbamate], the “AC1.4 Human” value is 0.51 µM and the EC50 stood at 5.89 µM.

Regarding `CN1CC(=O)NC[C@@H]1c1ccc(NC(=O)OCc2ccc(Cl)cc2)cc1` [Compound 54, 4-chlorobenzyl (S)-(4-(1-methyl-5-oxopiperazin-2-yl)phenyl)carbamate], the “AC1.4 Human” value was determined as 0.51 µM and the EC50 stood at 8.45 µM.

With `CN(Cc1ccc(NC(=O)OCc2ccc(Cl)cc2)cc1)C(=O)c1c(F)cncc1F` [Compound 55, (4-chlorophenyl)methyl N-(4-{[1-(3,5-difluoropyridin-4-yl)-N-methylformamido]methyl}phenyl)carbamate], the “AC1.4 Human” value amounted to 0.51 µM and the EC50 amounted to 1.82 µM.

As for `COCCn1nccc1C(=O)N[C@@H](C)c1ccc(NC(=O)OCc2ccc(Cl)cc2)cc1` [Compound 56, (4-chlorophenyl)methyl N-{4-[(1S)-1-{[2-(2-methoxyethyl)pyrazol-3-yl]formamido}ethyl]phenyl}carbamate], the “AC1.4 Human” value worked out at 0.53 µM and the EC50 was determined as 2.8 µM.

`C[C@H](NC(=O)c1c(F)cncc1F)c1ccc(NC(=O)OCc2ccc(Cl)cc2)cc1` [Compound 57, (4-chlorophenyl)methyl N-{4-[(1S)-1-[(3,5-difluoropyridin-4-yl)formamido]ethyl]phenyl}carbamate]: the “AC1.4 Human” value worked out at 0.54 µM and the EC50 worked out at 1.29 µM.

On to `CN(C)C(=O)N1CCC(Cc2ccc(NC(=O)OCc3ccc(Cl)cc3)cc2)CC1` [Compound 58, 4-chlorobenzyl (4-((1-(dimethylcarbamoyl)piperidin-4-yl)methyl)phenyl)carbamate], for which the “AC1.4 Human” value worked out at 0.55 µM and the EC50 is 1.73 µM.

Consider `Cc1ccc(C(=O)N[C@@H](C)c2ccc(NC(=O)OCc3ccc(Cl)cc3)cc2)cn1` [Compound 60, 4-chlorobenzyl (S)-(4-(1-(6-methylnicotinamido)ethyl)phenyl)carbamate], for which the “AC1.4 Human” value came to 0.57 µM and the EC50 was 1.91 µM.

As for `COc1ccc(COC(=O)Nc2ccc(NS(=O)(=O)Cc3ccccc3)cc2)cc1` [Compound 61, 4-methoxybenzyl (4-((phenylmethyl)sulfonamido)phenyl)carbamate], the “AC1.4 Human” value turned out to be 0.57 µM and the EC50 was 2.62 µM.

For the molecule `NC(=O)N1CCC(Cc2ccc(NC(=O)OCc3ccc(Cl)cc3)cc2)CC1` [Compound 62, 4-chlorobenzyl (4-((1-carbamoylpiperidin-4-yl)methyl)phenyl)carbamate], the “AC1.4 Human” value was found to be 0.57 µM and the EC50 was determined as 2.64 µM.

As to `O=C(Nc1ccc(CN2C(=O)CC3CC32)cc1)OCc1ccc(Cl)cc1` (centres unmarked) [Compound 63, (4-chlorophenyl)methyl N-[4-({3-oxo-2-azabicyclo[3.1.0]hexan-2-yl}methyl)phenyl]carbamate], the “AC1.4 Human” value turned out to be 0.57 µM and the EC50 was found to be 4.93 µM.

Consider `CO[C@H]1CC[C@H](NC(=O)Cc2ccc(NC(=O)OCc3ccc(Cl)cc3)cc2)CC1` [Compound 64, (4-chlorophenyl)methyl N-[4-({[(1R,4R)-4-methoxycyclohexyl]carbamoyl}methyl)phenyl]carbamate], for which the “AC1.4 Human” value was 0.58 µM and the concentration giving a half-maximal response (EC50) amounted to 4.22 µM.

Take `Cc1ccc(Cc2ccc(NC(=O)OCc3cn[nH]c3)cc2)cn1` [Compound 65, (1H-pyrazol-4-yl)methyl (4-((6-methylpyridin-3-yl)methyl)phenyl)carbamate]: the “AC1.4 Human” value amounted to 0.58 µM and the EC50 stood at 37.1 µM.

As for `Cc1ccc(C(=O)NCc2ccc(NC(=O)OCc3cncs3)cc2)cn1` [Compound 66, thiazol-5-ylmethyl (4-((6-methylnicotinamido)methyl)phenyl)carbamate], the “AC1.4 Human” value turned out to be 0.59 µM and the EC50 was determined as 5.12 µM.
